Legend:
HCT-8 = assay: Cytotoxicity in human HCT8 cells assessed as reduction in cell viability incubated for 96 hrs by SRB assay; format: functional, cell-based; conditions: HCT-8, 96 h
4T1 = assay: Cytotoxicity in mouse 4T1 cells assessed as reduction in cell viability incubated for 96 hrs by SRB assay; format: functional, cell-based; conditions: 4T1, 96 h
MDA-MB-231 [1] = assay: Cytotoxicity in human MDA-MB-231 cells assessed as reduction in cell viability incubated for 96 hrs by SRB assay; format: functional, cell-based; conditions: MDA-MB-231, 96 h
HT-29 [2] = assay: Cytotoxicity in human HT-29 cells assessed as reduction in cell viability incubated for 96 hrs by SRB assay; format: functional, cell-based; conditions: HT-29, 96 h
PC-3 = assay: Cytotoxicity in human PC3 cells assessed as reduction in cell viability incubated for 96 hrs by SRB assay; format: functional, cell-based; conditions: PC-3, 96 h
HCT-116 = assay: Cytotoxicity in human HCT116 cells assessed as reduction in cell viability incubated for 96 hrs by SRB assay; format: functional, cell-based; conditions: HCT-116, 96 h
CT26 = assay: Cytotoxicity in mouse CT26 cells assessed as reduction in cell viability incubated for 96 hrs by SRB assay; format: functional, cell-based; conditions: CT26, 96 h
DU-145 = assay: Cytotoxicity in human DU145 cells assessed as reduction in cell viability incubated for 96 hrs by SRB assay; format: functional, cell-based; conditions: DU-145, 96 h
HeLa [3] = assay: Cytotoxicity in human HeLa cells assessed as reduction in cell viability incubated for 24 hrs by MTT assay; format: functional, cell-based
[4] = Cytotoxicity in human HELF cells assessed as reduction in cell viability incubated for 24 hrs by MTT assay; format: cell-based
HepG2 = assay: Cytotoxicity in human HepG2 cells assessed as reduction in cell viability incubated for 24 hrs by MTT assay; format: functional, cell-based; conditions: HepG2, 24 h
MDA-MB-231 [5] = assay: Cytotoxicity in human MDA-MB-231 cells assessed as reduction in cell viability incubated for 48 hrs by SRB assay; format: functional; conditions: MDA-MB-231, 48 h
MCF7 = assay: Cytotoxicity in human MCF7 cells assessed as reduction in cell viability incubated for 48 hrs by SRB assay; format: functional, cell-based; conditions: MCF7, 48 h
BGC-823 = assay: Cytotoxicity in human BGC823 cells assessed as reduction in cell viability incubated for 72 hrs by MTT assay; format: functional, cell-based; conditions: BGC-823, 72 h
HT-29 [6] = assay: Cytotoxicity in human HT-29 cells assessed as reduction in cell viability incubated for 72 hrs by MTT assay; format: functional, cell-based; conditions: HT-29, 72 h
HeLa [7] = assay: Cytotoxicity in human HeLa cells assessed as reduction in cell viability incubated for 72 hrs by MTT assay; format: functional, cell-based
Bel-7402 = assay: Cytotoxicity in human Bel7402 cells assessed as reduction in cell viability incubated for 72 hrs by MTT assay; format: functional, cell-based; conditions: Bel-7402, 72 h

SMILES | IC50 (HCT-8) | IC50 (4T1) | IC50 (MDA-MB-231 [1]) | IC50 (HT-29 [2]) | IC50 (PC-3) | IC50 (HCT-116) | IC50 (CT26) | IC50 (DU-145) | other results
CCOC(=O)c1[nH]nc2c1C[C@]1(C)[C@H]3C(=O)C=C4[C@H]5C[C@@](C)(C(=O)OCc6ccccc6)CC[C@]5(C)CC[C@@]4(C)[C@]3(C)CC[C@H]1C2(C)C | 9.96 µM | 5.75 µM | 16.6 µM | 12.5 µM | 19.6 µM | 8.2 µM | 17.7 µM | 23.8 µM | 
CC(=O)O[C@H]1CC[C@]2(C)[C@H]3CC=C4[C@@H]5[C@@H](C)[C@H](C)CC[C@]5(C(=O)NCCCCCCCCN)CC[C@@]4(C)[C@]3(C)CC[C@H]2C1(C)C |  |  |  |  |  |  |  |  | IC50 (HeLa [3]): 8.6 µM; IC50 [4]: 36.1 µM; IC50 (HepG2): 17.3 µM
C[C@H]1[C@H](C)CC[C@]2(C(=O)OCCCn3cc(COC(=O)[C@]45CC[C@@H](C)[C@H](C)[C@@H]4C4=CC[C@@H]6[C@@]7(C)CC[C@H](O)[C@](C)(CO)[C@@H]7CC[C@]6(C)[C@]4(C)CC5)cn3)CC[C@]3(C)C(=CC[C@@H]4[C@@]5(C)CC[C@H](O)C(C)(C)[C@@H]5CC[C@]43C)[C@H]12 |  |  |  |  |  |  |  |  | GI50 (MDA-MB-231 [5]): 4.5 µM; GI50 (MCF7): 12.1 µM
C[C@H]1[C@H](C)CC[C@]2(C(=O)OCCCn3cc(COC(=O)[C@]45CC[C@@H](C)[C@H](C)[C@@H]4C4=CC[C@@H]6[C@@]7(C)C[C@H](O)[C@H](O)[C@](C)(CO)[C@@H]7CC[C@]6(C)[C@]4(C)CC5)cn3)CC[C@]3(C)C(=CC[C@@H]4[C@@]5(C)CC[C@H](O)C(C)(C)[C@@H]5CC[C@]43C)[C@H]12 |  |  |  |  |  |  |  |  | GI50 (MDA-MB-231 [5]): 7.4 µM; GI50 (MCF7): 12.8 µM
COC(=O)[C@@]1(C)CC[C@]2(C)CC[C@]3(C)C(=CC(=O)[C@@H]4[C@@]5(C)Cc6cn(C(=O)C7CCCNC7)nc6C(C)(C)[C@@H]5CC[C@]43C)[C@H]2C1 (stereo partly specified) | 23.8 µM | 9.68 µM | 24 µM | 21.8 µM | 23.1 µM | 22 µM | 23.7 µM | 21.9 µM | 
C=C(C)[C@@H]1CC[C@]2(C(=O)OCc3cnn(CCCOC(=O)[C@]45CC[C@@H](C)[C@H](C)[C@H]4C4=CC[C@@H]6[C@@]7(C)CC[C@H](O)C(C)(C)[C@@H]7CC[C@@]6(C)[C@]4(C)CC5)c3)CC[C@]3(C)[C@H](CC[C@@H]4[C@@]5(C)CC[C@H](O)C(C)(C)[C@@H]5CC[C@]43C)[C@@H]12 |  |  |  |  |  |  |  |  | GI50 (MDA-MB-231 [5]): 1.4 µM; GI50 (MCF7): 14.4 µM
C=C(C)[C@@H]1CC[C@]2(C(=O)O)CC[C@]3(C)[C@H](CC[C@@H]4[C@@]5(C)CC[C@H](O)C(C)(C)[C@@H]5CC[C@]43C)[C@@H]12 [BETULINIC ACID] |  |  |  |  |  |  |  |  | GI50 (MDA-MB-231 [5]): 22.9 µM; GI50 (MCF7): 11.3 µM
COC(=O)[C@@]1(C)CC[C@]2(C)CC[C@]3(C)C(=CC(=O)[C@@H]4[C@@]5(C)Cc6cn(C(=O)CCCC7CCNCC7)nc6C(C)(C)[C@@H]5CC[C@]43C)[C@H]2C1 | 11.7 µM | 6.09 µM | 9.76 µM | 8.76 µM | 5.19 µM | 6.99 µM | 8.08 µM | 7.54 µM | 
CC1(C)c2n[nH]cc2C[C@]2(C)[C@H]3C(=O)C=C4[C@H]5C[C@@](C)(C(=O)OCc6ccccc6)CC[C@]5(C)CC[C@@]4(C)[C@]3(C)CC[C@@H]12 | 13.3 µM | 6.32 µM | 18.1 µM | 15.2 µM | 12.3 µM | 7.49 µM | 19.8 µM | 19 µM | 
COC(=O)[C@@]1(C)CC[C@]2(C)CC[C@]3(C)C(=CC(=O)[C@@H]4[C@@]5(C)Cc6cn(C(=O)C7CCNCC7)nc6C(C)(C)[C@@H]5CC[C@]43C)[C@H]2C1 | 22.3 µM | 5.34 µM | 19.2 µM | 25.2 µM | 22.4 µM | 23.2 µM | 21.4 µM | 20.8 µM | 
C[C@H]1[C@H](C)CC[C@]2(C(=O)NCCCCCCCCN)CC[C@]3(C)C(=CC[C@@H]4[C@@]5(C)CC[C@H](O)C(C)(C)[C@@H]5CC[C@]43C)[C@H]12 |  |  |  |  |  |  |  |  | IC50 (HeLa [3]): 16.9 µM; IC50 [4]: 39.4 µM; IC50 (HepG2): 26.7 µM
Cc1nc(C)c(COC(=O)[C@]23CCC(C)(C)C[C@H]2C2=CC[C@@H]4[C@@]5(C)CC[C@H](O)C(C)(C)[C@@H]5CC[C@@]4(C)[C@]2(C)CC3)nc1C |  |  |  |  |  |  |  |  | IC50 (BGC-823): > 30 µM; IC50 (HT-29 [6]): 29.8 µM; IC50 (HeLa [7]): 28.7 µM; IC50 (Bel-7402): 6.36 µM
COC(=O)[C@@]1(C)CC[C@]2(C)CC[C@]3(C)C(=CC(=O)[C@@H]4[C@@]5(C)Cc6cn(C(=O)CCC7CCNCC7)nc6C(C)(C)[C@@H]5CC[C@]43C)[C@H]2C1 | 13.6 µM | 5.77 µM | 9.56 µM | 12.5 µM | 12 µM | 6.36 µM | 13 µM | 13.9 µM | 
COC(=O)[C@@]1(C)CC[C@]2(C)CC[C@]3(C)C(=CC(=O)[C@@H]4[C@@]5(C)Cc6c(n[nH]c6C(F)(F)F)C(C)(C)[C@@H]5CC[C@]43C)[C@H]2C1 | 20 µM | 15.7 µM | 27.4 µM | 27.6 µM | 19.8 µM | 11.9 µM | 22 µM | 33.6 µM | 
C[C@H]1[C@H](C)CC[C@]2(C(=O)O)CC[C@]3(C)C(=CC[C@@H]4[C@@]5(C)C[C@@H](O)[C@H](O)C(C)(C)[C@@H]5CC[C@]43C)[C@H]12 [COROSOLIC ACID] |  |  |  |  |  |  |  |  | GI50 (MDA-MB-231 [5]): 15.3 µM; GI50 (MCF7): 18.5 µM
COC(=O)[C@@]1(C)CC[C@]2(C)CC[C@]3(C)C(=CC(=O)[C@@H]4[C@@]5(C)Cc6cn(C(=O)CC7CCNCC7)nc6C(C)(C)[C@@H]5CC[C@]43C)[C@H]2C1 | 8.98 µM | 5.8 µM | 10.1 µM | 12.1 µM | 11.7 µM | 12.1 µM | 9.87 µM | 13.3 µM | 
CC(=O)O[C@H]1CC[C@]2(C)[C@H]3CC=C4[C@@H]5[C@@H](C)[C@H](C)CC[C@]5(C(=O)N5CCNCC5)CC[C@@]4(C)[C@]3(C)CC[C@H]2C1(C)C |  |  |  |  |  |  |  |  | IC50 (HeLa [3]): 7 µM; IC50 [4]: 9.1 µM; IC50 (HepG2): 4.8 µM
C[C@H]1[C@H](C)CC[C@]2(C(=O)OCCCn3cc(COC(=O)[C@]45CC[C@@H](C)[C@H](C)[C@@H]4C4=CC[C@@H]6[C@@]7(C)CC[C@H](O)C(C)(C)[C@@H]7CC[C@]6(C)[C@]4(C)CC5)cn3)CC[C@]3(C)C(=CC[C@@H]4[C@@]5(C)CC[C@H](O)C(C)(C)[C@@H]5CC[C@]43C)[C@H]12 |  |  |  |  |  |  |  |  | GI50 (MDA-MB-231 [5]): 3.8 µM; GI50 (MCF7): 12.7 µM
CC(=O)O[C@H]1CC[C@]2(C)[C@H]3CC=C4[C@@H]5[C@@H](C)[C@H](C)CC[C@]5(C(=O)N5CCNCC5C)CC[C@@]4(C)[C@]3(C)CC[C@H]2C1(C)C (stereo partly specified) |  |  |  |  |  |  |  |  | IC50 (HeLa [3]): 6.3 µM; IC50 [4]: 14.8 µM; IC50 (HepG2): 5.2 µM
C[C@H]1[C@H](C)CC[C@]2(C(=O)OCCCn3cc(COC(=O)[C@]45CC[C@@H](C)[C@H](C)[C@@H]4C4=CC[C@@H]6[C@@]7(C)C[C@H](O)[C@H](O)C(C)(C)[C@@H]7CC[C@]6(C)[C@]4(C)CC5)cn3)CC[C@]3(C)C(=CC[C@@H]4[C@@]5(C)CC[C@H](O)C(C)(C)[C@@H]5CC[C@]43C)[C@H]12 |  |  |  |  |  |  |  |  | GI50 (MDA-MB-231 [5]): 4.7 µM; GI50 (MCF7): 12 µM
COC(=O)[C@@]1(C)CC[C@]2(C)CC[C@]3(C)C(=CC(=O)[C@@H]4[C@@]5(C)Cc6c[nH]nc6C(C)(C)[C@@H]5CC[C@]43C)[C@H]2C1 | 31.5 µM | 14.7 µM | 33.2 µM | 32 µM | 26.5 µM | 13.2 µM | 26.1 µM | 30.3 µM | 
COC(=O)[C@@]1(C)CC[C@]2(C)CC[C@]3(C)C(=CC(=O)[C@@H]4[C@@]5(C)Cc6cn(S(C)(=O)=O)nc6C(C)(C)[C@@H]5CC[C@]43C)[C@H]2C1 | 24.5 µM | 12.5 µM | 28.6 µM | 18.5 µM | 18.9 µM | 8.7 µM | 15.2 µM | > 50 µM | 
C[C@H]1[C@H](C)CC[C@]2(C(=O)N3CCNCC3)CC[C@]3(C)C(=CC[C@@H]4[C@@]5(C)CC[C@H](O)C(C)(C)[C@@H]5CC[C@]43C)[C@H]12 |  |  |  |  |  |  |  |  | IC50 (HeLa [3]): 14.4 µM; IC50 [4]: 12.6 µM; IC50 (HepG2): 5.1 µM
COC(=O)[C@@]1(C)CC[C@]2(C)CC[C@]3(C)C(=CC(=O)[C@@H]4[C@@]5(C)Cc6cn(OC(C)=O)nc6C(C)(C)[C@@H]5CC[C@]43C)[C@H]2C1 | 29.2 µM | 20.1 µM | 32.3 µM | 31 µM | 25.4 µM | 14.1 µM | 33 µM | 36.7 µM | 
